How the values were obtained:
Assay type in all cases: in vivo, Sprague-Dawley rats
[1] = system: IL-1β; test: Elisa test of cerebrospinal fluid, IL-1β; conditions: rat cerebrospinal fluid; BTUDC-H 1000 mg/kg p.o. Qd 21 days; Mean ± SEM, n=10; Model 41.509 ± 1.298; p<0.05 vs Model
Description: (§1) The cerebrospinal fluid was directly extracted by inserting a needle through the foramen magnum, and the supernatant was collected after centrifugation for ELISA testing. The kit brand was Shanghai Enzyme Link. The product codes of IL-6, IL-1β, and TNF-α were m1064292, m1037361, and m1002859, respectively. Processed the sample according to the instructions of the ELISA detection kit, adjusted the blank well to zero, measured the absorbance (OD value) of each well sequentially at a wavelength of 450 nm, and calculated the sample concentration based on the standard curve and OD value. […]
(§2) Dosing volume: 10 mL/kg • 1. […] Histochemical test: After the behavioral test, the cerebrospinal fluid from each animal (N=10) was collected, centrifuged to collect the supernatant, and stored at −80° C. for Elisa test (IL-6, IL-1β, TNF-α), then the animals in each group (N=5) were randomly selected to take the modeling side of the striatum for the detection of neurotransmitters, and the rest of them (N=5) were subjected to cardiac perfusion, which was performed by the process of perfusion, fixation, sedimentation and slicing for immunofluorescence staining and photographed, and the number or area of signals were counted by ImageJ software. • 4. […]

[2] = system: 6-OHDA Stereotactic Injection Induced PD Rats; test: Tolerability / general condition observation in PD rat model
Method: In this study, 16 Sprague Dawley (SD) male rats 180g-220g were used to establish a PD model by stereotactic unilateral injection of 6-OHDA in the substantia nigra (SN) and striatum (Str) brain areas after one week of acclimatization feeding and were randomly divided into 2 groups of 8 rats each. One group was dosed with the test compound BTUDC 500 mg/kg (QD, p.o.) and the other group was the Model group, which was given an equal volume of 0.5% CMC-Na (QD, p.o.) as the test compound group. The animals were administered once a day for 21 consecutive days starting from the second day after modeling to evaluate the tolerability and therapeutic potential of BTUDC in the 6-OHDA PD model.
The body weight and food intake of the rats were collected and recorded every day, and the cage side observation for the animals was carried out.
(§3) Experimental Methods: Seventy 180-220g SD male rats were selected and fed for one week for accumulation, and the PD model was established by stereotactic unilateral injection of 6-OHDA in the Substantia Nigra (SN) and Striatum (Str) regions and were randomly divided into five groups according to their body weights including Madopar group (Madopar, 50 mg/kg), BTUDC-L group (BTUDC, 100 mg/kg), BTUDC-M group (BTUDC, 500 mg/kg), and BTUDC-H group (BTUDC, 1000 mg/kg), with 10 animals in each group. Another 10 SD male rats were taken for sham operation (only 4 μL of 0.9% NS containing 0.02% ascorbic acid was given to the SN and Str brain regions during modeling) as the Sham group. The drug was administered by gavage once daily continuously for 21 days starting on the second day of modeling (first day of dosing, D1). General observation was made during the dosing period. At the end of the administration, the test articles were evaluated for tolerance in this model and in behavioral apomorphine—asymmetric rotation test, beam test, rotarod test and grip strength test, immunofluorescence staining (TH, Ibal), and cerebrospinal fluid inflammatory factor assays to evaluate the pharmacodynamic effects of the test articles. Inflammatory factors tested included interleukin 6 (1L-6), inflammatory factor […], Tumor Necrosis Factor alpha (TNF-α), inflammatory assays were done in a total of 4 groups included Sham, Model, Madopar and BTUDC-H groups.
Dosing volume: 10 mL/kg • 1. General observation: During the period of drug administration, body weight, food intake test and cage side observation were conducted […]. • 2. Behavioral test: After 21 days of administration, behavioral test was carried out on the following day. • 3. Histochemical test: After the behavioral test, the cerebrospinal fluid from each animal (N=10) was collected, centrifuged to collect the supernatant, and stored at −80° C. for Elisa test (IL-6, IL-1β, TNF-α), then the animals in each group (N=5) were randomly selected to take the modeling side of the striatum for the detection of neurotransmitters, and the rest of them (N=5) were subjected to cardiac perfusion, which was performed by the process of perfusion, fixation, sedimentation and slicing for immunofluorescence staining and photographed, and the number or area of signals were counted by ImageJ software. • 4. Data analysis: After the data were summarized and counted, they were analyzed using SPSS data statistics software (one-way ANOVA, p<0.05 was considered a significant difference), and images were plotted according to the results of SPSS analysis using Graph Pad software. […]

[3] = system: tyrosine hydroxylase (TH)-positive cells; test: Immunofluorescence staining of TH in Str and SN brain regions; conditions: Mean ± SEM, N=15; for TH staining SN positive cells num.: Model 0.9 ± 0.5; for TH staining Str Fluorescence intensity: Model 11.1 ± 3.0
Method: After the rat was anesthetized, the abdominal cavity and thorax were cut open with straight scissors to expose the heart. The blood was first flushed out with normal saline perfusion, and then paraformaldehyde was used for initial perfusion fixation. The head was cut off, and the brain case was carefully opened with tweezers, and the brain tissue was removed and placed in paraformaldehyde solution and fix for 24 h; on the second day, took out the brain tissue and placed in 20% sucrose solution for 24 h; on the third day, took out the brain tissue and placed in 30% sucrose solution for 24 h; on the fourth day, took out the brain tissue and placed in 35% sucrose solution for 24 h (increase the time or concentration appropriately according to the condition of sugar deposition in the brain tissues); took out the brain tissue, embedded it in OCT embedding agent, and cut brain slices at the thickness of […] with a freezing microtome.
Immunohistochemical staining of TH and Iba-1 was performed on the sections. Sections were rewarmed for 30 min, closed at room temperature for 1 h with 50% serum+0.3% TritonX-100 in 50 μL per slice, shook off the slices, added primary antibody (diluted in PBS), overnight at 4° C.; rewarmed for 30 min; washed off primary antibody (PBS), 5 min×3 times; added secondary antibody (diluted in PBS) by backlighting, room temperature for 2 h; washed off secondary antibody (PBS), 5minx 3 times; added (4′,6-diamidino-2-phenylindole) (DAPI), and stayed at room temperature for 10 min; washed off DAPI, 5 min×3 times; added 70% glycerol to seal the slices to avoid air bubbles. Observed and took pictures under a microscope. Selected basically the same target brain area for each slice. Afterwards, ImageJ was used to count the signal number or area of the entire slice.
as §3
Dosing volume: 10 mL/kg • 1. General observation: During the period of drug administration, body weight, food intake test and cage side observation were conducted every 3 days. • 2. Behavioral test: After 21 days of administration, behavioral test was carried out on the following day. • 3. […]

[4] = system: TNF-α; test: Elisa test of cerebrospinal fluid, TNF-α; conditions: rat cerebrospinal fluid; BTUDC-H 1000 mg/kg p.o. Qd 21 days; Mean ± SEM, n=10; Model 271.022 ± 8.145; p<0.05 vs Model
Description: as §1, §2

[5] = up to 1000 mg/kg p.o. Qd 21 days
[6] = BTUDC-H 1000 mg/kg p.o. Qd 21 days, p<0.001 vs Model
[7] = BTUDC-L 100 mg/kg p.o. Qd 21 days, no significance mark

**Q.** `COc1ccc2cc3[n+](cc2c1OC)CCc1cc2c(cc1-3)OCO2.C[C@H](CCC(=O)NCCS(=O)(=O)[O-])[C@H]1CC[C@H]2[C@@H]3[C@@H](O)C[C@@H]4C[C@H](O)CC[C@]4(C)[C@H]3CC[C@]12C` [BTUDC, Berberine tauroursodeoxycholate] was tested. Which “IL-1β Conc.” value [1] did it give?
**A.** 37.251 ± 1.005 pg/mL

**Q.** What about the “tolerability in the PD rat model” value ([2]; 500 mg/kg QD p.o. 21 days) of the same molecule?
**A.** well tolerated

**Q.** What about the “mortality, moribundity, abnormal animal state” value ([2]; 500 mg/kg QD p.o. 21 days, vs model group) of the same molecule?
**A.** no Test Compound-related mortality or moribundity nor abnormal animal state

**Q.** What about the “body weight and food intake vs model control group” value ([2]; 500 mg/kg QD p.o. 21 days, whole study period) of the same molecule?
**A.** no obvious differences

**Q.** What about the “body weight growth or food intake compared with other groups of animals” value [2, 5] of the same molecule?
**A.** no obvious abnormalities

**Q.** What about the tolerability [2, 5] of the same molecule?
**A.** well tolerated

**Q.** What about the “TH staining SN positive cells num.” value [3, 6] of the same molecule?
**A.** 12.7 ± 3.1

**Q.** What about the “TH staining Str Fluorescence intensity” value [3, 6] of the same molecule?
**A.** 65.8 ± 4.4

**Q.** What about the “TH staining SN positive cells num.” value [3, 7] of the same molecule?
**A.** 0.7 ± 0.3

**Q.** And the “TH staining Str Fluorescence intensity” value [3, 7]?
**A.** 19.8 ± 3.5

**Q.** What about the “TH staining SN positive cells num.” value ([3]; BTUDC-M 500 mg/kg p.o. Qd 21 days, no significance mark) of the same molecule?
**A.** 2.0 ± 0.6

**Q.** And the “TH staining Str Fluorescence intensity” value ([3]; BTUDC-M 500 mg/kg p.o. Qd 21 days, p<0.001 vs Model)?
**A.** 32.6 ± 5.5

**Q.** And the “TNF-α Conc.” value [4]?
**A.** 250.424 ± 9.186 pg/mL
